22 compounds from ChEMBL document CHEMBL4732160, “Design and synthesis of 7-O-1,2,3-triazole hesperetin derivatives to relieve inflammation of acute liver injury in mice” (Eur J Med Chem, 2021) can be followed below.

Activity calls are given as the source filed them. The rule behind the calls is not given here.

The subject of data set [1] is RAW264.7. In words: Antiinflammatory activity in mouse RAW264.7 cells assessed as inhibition of LPS-induced NO production at 10 uM preincubated for 2 hrs followed by LPS stimulation and measured after 24 hrs by Griess method relative to control. To be noted: time 26 hrs. The format is functional.
Data set [2] deals with RAW264.7. In words: Antiinflammatory activity in mouse RAW264.7 cells assessed as inhibition of LPS-induced NO production preincubated for 2 hrs followed by LPS stimulation and measured after 24 hrs by Griess method. The format is functional, cell-based.
A short description of data set [3]: Cytotoxicity against mouse RAW264.7 cells assessed as cell viability at 40 uM measured after 24 hrs by MTT assay relative to control. It is filed as cell-based.
The subject of data set [4] is RAW264.7. In words: Antiinflammatory activity in mouse RAW264.7 cells assessed as inhibition of LPS-induced TNFalpha production at 10 uM preincubated for 1 hr followed by LPS stimulation and measured after 22 hrs by ELISA. It is filed as functional, cell-based. The following applies: time 23.0 hrs.
The subject of data set [5] is RAW264.7. In words: Antiinflammatory activity in mouse RAW264.7 cells assessed as inhibition of LPS-induced IL1beta production at 10 uM preincubated for 1 hr followed by LPS stimulation and measured after 22 hrs by ELISA. The format is functional, cell-based. The following applies: time 23.0 hrs.
Data set [6] has as its system RAW264.7. In words: Antiinflammatory activity in mouse RAW264.7 cells assessed as inhibition of LPS-induced IL6 production at 10 uM preincubated for 1 hr followed by LPS stimulation and measured after 22 hrs by ELISA. It is filed as functional, cell-based. To be noted: time 23.0 hrs.

As to `CCCn1cc(COc2cc(O)c3c(c2)O[C@H](c2ccc(OC)c(O)c2)CC3=O)nn1`, the inhibition at 10 µM with RAW264.7 [1] came out at 56.4%. Moreover, the IC50 in the data set on RAW264.7 [2] stood at 9.67 µM. Also, the viability at 24 h, 40 µM in data set [3] was found to be 114%. Also, the inhibition entry in the data set with RAW264.7 [4], in the data set with RAW264.7 [5] and with RAW264.7 [6] was “Active” throughout.
Regarding `COc1ccc([C@@H]2CC(=O)c3c(O)cc(OCc4cn(Cc5ccccc5Cl)nn4)cc3O2)cc1O`, the inhibition at 10 µM in the data set on RAW264.7 [1] is 63.1%. Further, in the data set on RAW264.7 [2], the IC50 amounted to 6.14 µM. In addition, the viability at 24 h, 40 µM in data set [3] was 83%. Further, the inhibition result in the data set with RAW264.7 [4], with RAW264.7 [5] and in the data set with RAW264.7 [6] was “Active” each time.
Regarding `COc1ccc([C@@H]2CC(=O)c3c(O)cc(OCc4cn(CC(=O)c5ccccc5F)nn4)cc3O2)cc1O`, in the data set on RAW264.7 [1], the inhibition at 10 µM came to 34.5%. Further, the IC50 with RAW264.7 [2] turned out to be 18.9 µM. Besides, the viability at 24 h, 40 µM in data set [3] is 113%. For the same compound, the inhibition result with RAW264.7 [4], in the data set with RAW264.7 [5] and in the data set on RAW264.7 [6] was “Active” throughout.
On to `COc1ccc([C@@H]2CC(=O)c3c(O)cc(OCc4cn(Cc5cccc(Cl)c5)nn4)cc3O2)cc1O`, for which the inhibition at 10 µM in the data set with RAW264.7 [1] was 28%. The IC50 in the data set on RAW264.7 [2] was 18.2 µM. The viability at 24 h, 40 µM in data set [3] amounted to 120%. In addition, the inhibition entry in the data set on RAW264.7 [4], in the data set on RAW264.7 [5] and with RAW264.7 [6] was “Active” throughout.
`COc1ccc([C@@H]2CC(=O)c3c(O)cc(OCc4cn(C)nn4)cc3O2)cc1O`: in the data set with RAW264.7 [1], the inhibition at 10 µM is 40%. Also, in the data set on RAW264.7 [2], the IC50 stood at 15.2 µM. For the same compound, the viability at 24 h, 40 µM in data set [3] was found to be 105%. Moreover, the inhibition result in the data set with RAW264.7 [4], in the data set with RAW264.7 [5] and with RAW264.7 [6] was “Active” throughout.
As for `CCCCn1cc(COc2cc(O)c3c(c2)O[C@H](c2ccc(OC)c(O)c2)CC3=O)nn1`, the inhibition at 10 µM in the data set on RAW264.7 [1] came to 49.9%. In the data set with RAW264.7 [2], the IC50 was determined as 13.9 µM. Besides, the viability at 24 h, 40 µM in data set [3] came out at 118%. In addition, the inhibition result with RAW264.7 [4], with RAW264.7 [5] and in the data set with RAW264.7 [6] was “Active” in each case.
Turning to `CCn1cc(COc2cc(O)c3c(c2)O[C@H](c2ccc(OC)c(O)c2)C/C3=N\O)nn1`, the inhibition at 10 µM in the data set with RAW264.7 [1] is 65.1%. In addition, the 50% inhibitory concentration (IC50) in the data set with RAW264.7 [2] amounted to 3.14 µM. The viability at 24 h, 40 µM in data set [3] stood at 101%. Also, the inhibition entry in the data set with RAW264.7 [4], in the data set with RAW264.7 [5] and with RAW264.7 [6] was “Active” each time.
For `COc1ccc([C@@H]2CC(=O)c3c(O)cc(OCc4cn(CCO)nn4)cc3O2)cc1O`, the inhibition at 10 µM with RAW264.7 [1] was 24.7%. The IC50 in the data set on RAW264.7 [2] worked out at 17.8 µM. Moreover, the viability at 24 h, 40 µM in data set [3] turned out to be 112%. Besides, the inhibition result in the data set on RAW264.7 [4], in the data set with RAW264.7 [5] and in the data set on RAW264.7 [6] was “Active” throughout.
Regarding `COc1ccc([C@@H]2CC(=O)c3c(O)cc(OCc4cn(Cc5ccccc5C#N)nn4)cc3O2)cc1O`, the inhibition at 10 µM with RAW264.7 [1] came to 43.6%. Moreover, the IC50 in the data set with RAW264.7 [2] was determined as 14.6 µM. Further, in data set [3], the viability at 24 h, 40 µM stood at 114%. In addition, the inhibition result in the data set with RAW264.7 [4], with RAW264.7 [5] and in the data set on RAW264.7 [6] was “Active” in each case.
Regarding `COc1ccc([C@@H]2CC(=O)c3c(O)cc(OCc4cn(Cc5ccccc5)nn4)cc3O2)cc1O`, the inhibition at 10 µM in the data set with RAW264.7 [1] is 49.8%. Further, in the data set with RAW264.7 [2], the IC50 worked out at 11 µM. Moreover, the viability at 24 h, 40 µM in data set [3] was determined as 98%. Moreover, the inhibition entry in the data set on RAW264.7 [4], with RAW264.7 [5] and in the data set with RAW264.7 [6] was “Active” in each case.
Consider `COc1ccc([C@@H]2CC(=O)c3c(O)cc(OCc4cn(CC(=O)c5ccc(F)cc5)nn4)cc3O2)cc1O`, for which, in the data set on RAW264.7 [1], the inhibition at 10 µM turned out to be 38.5%. The IC50 in the data set with RAW264.7 [2] stood at 15.4 µM. The viability at 24 h, 40 µM in data set [3] turned out to be 64%. Besides, the inhibition result with RAW264.7 [4], with RAW264.7 [5] and with RAW264.7 [6] was “Active” in each case.
For the compound `COc1ccc([C@@H]2CC(=O)c3c(O)cc(OCc4cn(C5CCC5)nn4)cc3O2)cc1O`, in the data set on RAW264.7 [1], the inhibition at 10 µM came to 44.2%. Also, the IC50 in the data set with RAW264.7 [2] amounted to 15.3 µM. In addition, in data set [3], the viability at 24 h, 40 µM turned out to be 111%. The inhibition entry with RAW264.7 [4], in the data set with RAW264.7 [5] and in the data set with RAW264.7 [6] was “Active” throughout.
Take `COc1ccc([C@@H]2CC(=O)c3c(O)cc(OCc4cn(CC(=O)c5ccccc5Cl)nn4)cc3O2)cc1O`: in the data set with RAW264.7 [1], the inhibition at 10 µM stood at 34.1%. For the same compound, in the data set with RAW264.7 [2], the half-inhibitory concentration (IC50) is 13.2 µM. For the same compound, the viability at 24 h, 40 µM in data set [3] was found to be 99%. Besides, the inhibition result in the data set on RAW264.7 [4], in the data set with RAW264.7 [5] and in the data set with RAW264.7 [6] was “Active” each time.
Turning to `COc1ccc([C@@H]2CC(=O)c3c(O)cc(OCc4cn(Cc5ccc(Cl)cc5)nn4)cc3O2)cc1O`, the inhibition at 10 µM in the data set on RAW264.7 [1] was 29%. In the data set with RAW264.7 [2], the IC50 was 17.8 µM. For the same compound, the viability at 24 h, 40 µM in data set [3] was 94%. Besides, the inhibition result in the data set on RAW264.7 [4], with RAW264.7 [5] and with RAW264.7 [6] was “Active” throughout.
On to `COc1ccc([C@@H]2C/C(=N\O)c3c(O)cc(OCc4cn(C5CCCC5)nn4)cc3O2)cc1O`, for which, in the data set with RAW264.7 [1], the inhibition at 10 µM was found to be 63.7%. The IC50 in the data set on RAW264.7 [2] came out at 6.88 µM. Further, the viability at 24 h, 40 µM in data set [3] came to 112%. Further, the inhibition result in the data set with RAW264.7 [4], in the data set on RAW264.7 [5] and in the data set on RAW264.7 [6] was “Active” in each case.
Consider `COc1ccc([C@@H]2CC(=O)c3c(O)cc(OCc4cn(C5CCCCC5)nn4)cc3O2)cc1O`, for which, in the data set with RAW264.7 [1], the inhibition at 10 µM was determined as 42.4%. In addition, in the data set with RAW264.7 [2], the IC50 was determined as 15.6 µM. Further, the viability at 24 h, 40 µM in data set [3] came out at 124%. Moreover, the inhibition entry in the data set with RAW264.7 [4], in the data set with RAW264.7 [5] and in the data set on RAW264.7 [6] was “Active” throughout.
With `Cc1ccc(-c2cc(C(F)(F)F)nn2-c2ccc(S(N)(=O)=O)cc2)cc1` [CELECOXIB], the viability at 24 h, 40 µM in data set [3] was determined as 83%. For the same compound, the inhibition result in the data set on RAW264.7 [4], with RAW264.7 [5] and with RAW264.7 [6] was “Active” in each case.
For `COc1ccc([C@@H]2CC(=O)c3c(O)cc(OCc4cn(CC(=O)c5ccccc5)nn4)cc3O2)cc1O`, in the data set with RAW264.7 [1], the inhibition at 10 µM turned out to be 32.1%. The IC50 with RAW264.7 [2] was found to be 16.9 µM. In data set [3], the viability at 24 h, 40 µM amounted to 112%. Besides, the inhibition result with RAW264.7 [4], in the data set on RAW264.7 [5] and in the data set with RAW264.7 [6] was “Active” throughout.
Take `C=CCn1cc(COc2cc(O)c3c(c2)O[C@H](c2ccc(OC)c(O)c2)CC3=O)nn1`: the inhibition at 10 µM in the data set with RAW264.7 [1] was 50.1%. Also, in the data set with RAW264.7 [2], the IC50 came to 13.8 µM. The viability at 24 h, 40 µM in data set [3] was determined as 118%. In addition, the inhibition result in the data set on RAW264.7 [4], in the data set with RAW264.7 [5] and with RAW264.7 [6] was “Active” throughout.
Consider `C#CCOc1cc(O)c2c(c1)O[C@H](c1ccc(OC)c(O)c1)CC2=O`, for which the inhibition at 10 µM with RAW264.7 [1] amounted to 35.2%. The IC50 in the data set on RAW264.7 [2] came to 20.9 µM.
As to `COc1ccc2c(c1)c(CC(=O)O)c(C)n2C(=O)c1ccc(Cl)cc1` [INDOMETHACIN], the viability at 24 h, 40 µM in data set [3] amounted to 87%. The inhibition result with RAW264.7 [4], with RAW264.7 [5] and with RAW264.7 [6] was “Active” throughout.
Consider `C#CCOc1cc(O)c2c(c1)O[C@H](c1ccc(OC)c(O)c1)C/C2=N\O`, for which the inhibition at 10 µM in the data set on RAW264.7 [1] was 38.7%. The IC50 in the data set on RAW264.7 [2] is 19.1 µM.
